# Data as given in patent US6989364B1, “Methods for treating cardiac hypertrophy by administering IFN-γ” (Genentech, Inc., priority 1998, dated 2006).
# What was measured:
# [1] = test system: left ventricle of male Sprague/Dawley (SD) rats; test: Cardiac gene expression (real-time RT-PCR) in rats treated with fluprostenol and/or IFN-γ; type: in vivo, rat; conditions: SKA, SRCA, COL I, ANF; FIG. 6
# Source text: FIGS. 6A–6D Bargraphs showing the effect of fluprostenol (FLUP) and IFN-γ on: A Skeletal actin (SKA); B Sarcoplasmic reticulum calcium ATPase (SRCA); C Collagen I (COL I); D Atrial natriuretic factor (ANF) expression. Expression levels are normalized to glyceraldehyde-3-phosphate dehydrogenase (GAPDH) message. VEH is vehicle. There were 7 animals per group and the data are presented as the mean±SEM. P<0.05 vs VEH group.
# (§1) RNA preparation Total RNA was isolated using RNeasy Maxi Columns (Qïägen) according to the manufacturer's instructions.
# RT-PCR Real-time RT-PCR (TaqMan) technology was used to compare the gene expression between the various treatment groups. An oligonucleotide probe containing a fluorescent reporter dye, […], at the 3′-end was designed to hybridize to the amplicon defined by two PCR primers. A 3′-blocking phosphate prevents extension of the probe. The reporter dye is released from the probe by the 5′ exonuclease activity of Taq polymerase during the extension phase of PCR reaction. […] The threshold cycle number (Ct), defined as the point where the reporter fluorescence reaches a value greater than 10 times the standard deviation of the baseline, is […] to the amount of amplicon produced from the sample. Since the fluorescence is detected during the exponential phase of the amplification, none of the reaction components are limiting. In each experiment, a control is analyzed that lacks the RNA template to monitor for contamination, and another control is included where the RT step is omitted to eliminate amplification of possible contaminating DNA as the source of the signal. Reactions are optimized to give the greatest fluorescence signal and smallest Ct by titration of magnesium and primer concentrations, and the product is run on an agarose gel to verify the presence of a single band at the predicted molecular weight. […]
# Quantitation of the TaqMan results was performed as described by Heid et al., Genome Res. 6:986–994 (1996), with modifications. […]
# [2] = test system: left ventricle of rats with pressure overload; test: Cardiac gene expression (real-time RT-PCR) in rats with pressure overload; type: in vivo, rat
# Description: Experimental protocol in rats with pressure overload The rats with aortic banding randomly received subcutaneous injection of IFN-γ at 0.08 mg/k twice a day for one day before surgery and for 14 days after surgery. Sham animals were not treated. Thirteen days after treatment, a catheter was implanted into the right carotid artery under anesthesia as indicated above. One day after implantation, arterial pressure and HR were measured in conscious rats. The heart and other organs including the liver, kidney, and spleen were removed, weighed, and fixed in 10% buffered formalin for pathological studies. The left ventricle was quickly dissected and frozen with liquid nitrogen in some animals and stored at −80° C. for assessment of gene expression.
# as §1
# RT-PCR Real-time RT-PCR (TaqMan) technology was used to compare the gene expression between the various treatment groups. An oligonucleotide probe containing a fluorescent reporter dye, […], at the 3′-end was designed to hybridize to the amplicon defined by two PCR primers. A 3′-blocking phosphate prevents extension of the probe. The reporter dye is released from the probe by the 5′ exonuclease activity of Taq polymerase during the extension phase of PCR reaction. […] The threshold cycle number (Ct), defined as the point where the reporter fluorescence reaches a value greater than 10 times the standard deviation of the baseline, is […] to the amount of amplicon produced from the sample. Since the fluorescence is detected during the exponential phase of the amplification, none of the reaction components are limiting. In each experiment, a control is analyzed that lacks the RNA template to monitor for contamination, and another control is included where the RT step is omitted to eliminate amplification of possible contaminating DNA as the source of the signal. Reactions are optimized to give the greatest fluorescence signal and smallest Ct by titration of magnesium and primer concentrations, and the product is run on an agarose gel to verify the presence of a single band at the predicted molecular weight. In addition, the sequence of the amplicon is screened against Genbank to eliminate the possibility of overlap with closely related genes.
# For each sample the mRNA for each target gene is determined using a standard curve as described below and then normalized to the amount of glyceraldehyde-3-phosphate-dehydrogenase (GAPDH) in the sample (see below for specifics of this calculation). The relative abundance of each target gene to GAPDH can then be compared among treatment groups.
# RT-PCR was performed on 1 ng of total RNA per reaction using the TaqMan Model 7700 Sequence Detector (ABI-Perkin Elmer) (Gibson et al., Genome Res. 6, 995–1001 [1996]). Amplification reaction conditions (for 50 μl) were 1×TaqMan Buffer A, 200 μM dATP, dCTP, dGTP, and 400 μM dUTP, 10% glycerol, 6.5 mM MgCl2, 50 U MuLV reverse transcriptase, 20 U RNase Inhibitor, 1.25 U AmpliTaq Gold, 100 nM forward and reverse primers, and 100 nM fluorogenic probe. RT-PCR reagents and glycerol were purchased from Perkin Elmer and Sigma, respectively. Reactions were performed in MicoAmp Optical Tubes and Caps (ABI-Perkin Elmer). TaqMan primers and probes were designed according to guidelines determined by Perkin Elmer and synthesized at Genentech, Inc., except for those for rodent GAPDH which were a generous gift from Perkin Elmer. Reverse transcription was performed at 48° C. for 30 minutes followed by heat activation of AmpliTaq Gold at 95° C. for 10 minutes. Thermal cycling was at 95° C. for 30 seconds and 60° for 1.5 minutes for 40 cycles.
# Quantitation of the TaqMan results was performed as described by Heid et al., Genome Res. 6:986–994 (1996), with modifications. Briefly, standard curves (1:5 serial dilution) for each target gene of interest were run in duplicate. […]
# [3] = pressure overload, ratio to glyceraldehyde-3-phosphate dehydrogenase, mean ± SEM, n = 6
substance,measurement,setting,value
"IFN-γ: recombinant mouse IFN-γ (Genentech, Inc., South San Francisco, Calif., or Genzyme, Cambridge, Mass.)",Inhibition of alterations in cardiac gene expression associated with fluprostenol induced hypertrophy,[1],inhibited all but the atrial natriuretic factor response
same,Effects of aortic constriction on α-smooth muscle actin and collagen I gene expression,"[2]; banded rats, Table 3",inhibited
same,"ANF, atrial natriuretic factor expression",[2]; [3],3.61 ± 1.32
same,"COLI, collagen I expression",[2]; [3],0.77 ± 0.10
same,"COLIII, collagen III expression",[2]; [3],0.72 ± 0.09
same,"FIB, fibronectin expression",[2]; [3],0.97 ± 012
same,"SKA, α-skeletal actin expression",[2]; [3],2.47 ± 0.51
same,"SMA, α-smooth muscle actin expression",[2]; [3],0.77 ± 0.06
same,"βMHC, β-myosin heavy chain expression",[2]; [3],1.71 ± 0.14
